3 compounds from patent US8288548B2, “Oxazolo[5-4-b]pyridin-5-yl compounds” (Eli Lilly and Company, priority 2010, dated 2012) can be followed below.

Marks after values point to notes of the source that are not given here.

Data set [1] has as its system A2780 human ovarian carcinoma cells. The data set can be described thus: A2780 xenograft model, tumor growth inhibition. It is filed as in vivo, CD1 nu/nu mice. The following applies: 4 day on, 3 d off. How it is done: (§1) Female CD1 nu/nu mice are obtained from Charles River Laboratories at approximately 22-25 g. After 1 week acclimation, 2×10^6 A2780 human ovarian carcinoma cells are injected subcutaneously in the rear flank of each mouse in a 0.2 mL volume in a 1:1 mixture of cell culture media and BD […]™ matrix. Tumor size is monitored by caliper measurement twice per week. When the average tumor size reaches 150 mm^3, animals are randomized into groups of 10. p38 MAP kinase inhibitor treatment is initiated after randomization. Example 2 is dosed orally in a 0.2 mL volume of 1% HEC, 0.25% TWEEN® 80, 0.05% antifoam (HEC/TWEEN®). The compound is dosed at doses of 1, 3, and 10 mg/kg. Dosing is performed three times per day (TID) on a schedule of 4 days on, 3 days off. Three cycles of dosing is performed. Tumor volume is monitored twice per week during the dosing period, and efficacy (tumor growth inhibition) is monitored relative to a vehicle control group (n=10 animals). At 1, 2 and 8 hours after the last p38 MAP kinase inhibitor dose, plasma is obtained from animals to determine the circulating levels of compound in the animals.

The next data set concerns OPM-2 cells. The data set can be described thus: OPM-2 multiple myeloma xenograft model. The following applies: PO, BID. It is filed as in vivo, CB-17 SCID mice. The procedure:
Female CB-17 SCID mice are obtained from Taconic at 20-22 g weight. After acclimating for one week, mice are irradiated with a dose of 2.5 Gray. Within 24 hours following irradiation, mice are injected sub-cutaneously in the rear flank with 1.0×10^7 OPM-2 cells in a 0.2 mL volume in a 1:1 mixture of cell culture media and BD […]™ matrix. Tumor size is monitored by caliper measurement twice per week. When the tumor size reaches 100-150 mm^3, animals are randomized into dose groups. Compound treatment is initiated after randomization. Example 2 is dosed orally in a 0.2 mL volume of 1% HEC, 0.25% TWEEN® 80, 0.05% antifoam (HEC/TWEEN®). The compound is dosed at doses of 15 and 30 mg/kg. Dosing is performed two times per day (BID) for 28 days of treatment. Tumor volume is monitored twice per week during the dosing period, and efficacy (tumor growth inhibition) is monitored relative to a vehicle control group (n=10 animals).

A short description of data set [2]: Plasma concentration after last dose in the A2780 xenograft model. The data set is classed as in vivo, CD1 nu/nu mice. The procedure:
as §1

Data set [3] concerns 786-O human renal cell carcinoma cells. The data set can be described thus: 786-O xenograft model in combination with sunitinib. The data set is classed as in vivo, athymic nude mice. The note with it: BID x 28. How it is done: Female athymic nude mice are obtained from Harlan Labs at a weight of 24-26 g. […] Tumor size is monitored by caliper measurement twice per week. […] The compound is dosed orally in a 0.2 mL volume of 1% HEC, 0.25% TWEEN® 80, 0.05% antifoam (HEC/TWEEN®). […] Tumor volume is monitored twice per week and efficacy (tumor growth inhibition) is compared relative to vehicle-treated control animals. […] Statistical assessment of synergy was performed using two-way repeated measures analysis of variance on log tumor volume vs. time.

As to “2-[5-(2,4-Difluorophenyl)-4-[2-[[(1S)-3-methoxy-1-methyl-propyl]amino]oxazolo[5,4-b]pyridin-5-yl]-1H-imidazol-2-yl]-2-methyl-propan-1-ol, methanesulfonate [Example 2]”, the “Tumor Growth Inhibition (%)” value in data set [1] (1 mg/kg PO TID, Day 20) is given as 70.6%; in data set [1] (1 mg/kg PO TID, Day 23), 76.6%; in data set [1] (1 mg/kg PO TID, Day 26), 76%; in data set [1] (1 mg/kg PO TID, Day 29 (final)), 78.3%; in data set [1] (3 mg/kg PO TID, Day 20), 32.5%; in data set [1] (3 mg/kg PO TID, Day 23), 47.7%. Also, the “Tumor Growth Inhibition (%)” value was 42.7% in data set [1] (3 mg/kg PO TID, Day 26); 37.7% in data set [1] (3 mg/kg PO TID, Day 29 (final)); 60% in data set [1] (10 mg/kg PO TID, Day 20); 71.2% in data set [1] (10 mg/kg PO TID, Day 23); 72.8% in data set [1] (10 mg/kg PO TID, Day 26); 74.8% in data set [1] (10 mg/kg PO TID, Day 29 (final)). For the same compound, the “Mean tumor size (mm3)” value is 101.69 mm3 with OPM-2 cells (15 mpk, Day 4); 87.96 mm3 with OPM-2 cells (15 mpk, Day 8); 104.9 mm3 in the data set with OPM-2 cells (15 mpk, Day 11); 104.21 mm3 with OPM-2 cells (15 mpk, Day 15); 120.17 mm3 with OPM-2 cells (15 mpk, Day 18); 182.47 mm3 in the data set with OPM-2 cells (15 mpk, Day 21). Also, the “Mean tumor size (mm3)” value in the data set on OPM-2 cells (15 mpk, Day 25) was 169.53 mm3; in the data set on OPM-2 cells (15 mpk, Day 29) it was 214.28 mm3; in the data set on OPM-2 cells (15 mpk, Day 33), 326.29 mm3; in the data set with OPM-2 cells (15 mpk, Day 36) it was 384.59 mm3; in the data set with OPM-2 cells (15 mpk, Day 43), 628.46 mm3; in the data set with OPM-2 cells (15 mpk, Day 46), 700.62 mm3. Further, the “Mean tumor size (mm3)” value in the data set on OPM-2 cells (15 mpk, Day 49) is listed as 937.29 mm3; with OPM-2 cells (15 mpk, Day 53) it was 1138.19 mm3; in the data set on OPM-2 cells (30 mpk, Day 4), 97.8 mm3; with OPM-2 cells (30 mpk, Day 8) it was 90.78 mm3; in the data set on OPM-2 cells (30 mpk, Day 11) it was 118.46 mm3; in the data set with OPM-2 cells (30 mpk, Day 15), 95.34 mm3. For the same compound, the “Mean tumor size (mm3)” value was found to be 103.71 mm3 in the data set on OPM-2 cells (30 mpk, Day 18); 115.16 mm3 in the data set with OPM-2 cells (30 mpk, Day 21); 155.27 mm3 with OPM-2 cells (30 mpk, Day 25); 154.83 mm3 in the data set on OPM-2 cells (30 mpk, Day 29); 224.14 mm3 with OPM-2 cells (30 mpk, Day 33); 243.32 mm3 in the data set with OPM-2 cells (30 mpk, Day 36). Besides, the “Mean tumor size (mm3)” value in the data set on OPM-2 cells (30 mpk, Day 43) is recorded as 407.07 mm3; in the data set with OPM-2 cells (30 mpk, Day 46), 527.14 mm3; with OPM-2 cells (30 mpk, Day 49), 642.22 mm3; in the data set on OPM-2 cells (30 mpk, Day 53), 812.48 mm3. Moreover, the “Mean Plasma Concentration (μM) at time (hour) post-last dose” value in data set [2] (1 mg/kg PO TID, 1 hour post-last dose) was 0.0263 µM; in data set [2] (1 mg/kg PO TID, 2 hour post-last dose), 0.0146 µM; in data set [2] (3 mg/kg PO TID, 1 hour post-last dose), 0.0526 µM; in data set [2] (3 mg/kg PO TID, 2 hour post-last dose), 0.0604 µM; in data set [2] (3 mg/kg PO TID, 3 hour post-last dose), 0.0042 µM; in data set [2] (10 mg/kg PO TID, 1 hour post-last dose), 0.4952 µM. Also, the “Mean Plasma Concentration (μM) at time (hour) post-last dose” value in data set [2] (10 mg/kg PO TID, 2 hour post-last dose) came to 0.3978 µM; in data set [2] (10 mg/kg PO TID, 3 hour post-last dose), 0.0243 µM.

Consider `COCC[C@H](C)Nc1nc2ccc(-c3nc(C(C)(C)CO)[nH]c3-c3ccc(F)cc3F)nc2o1.Cl` [Example 3, 2-[5-(2,4-Difluorophenyl)-4-[2-[[(1S)-3-methoxy-1-methyl-propyl]amino]oxazolo[5,4-b]pyridin-5-yl]-1H-imidazol-2-yl]-2-methyl-propan-1-ol, hydrochloride], for which the “% Tumor Growth Inhibition” value in data set [3] (Example 3 15 mg/kg PO, Day 17) is on record as −35.5%; in data set [3] (Example 3 15 mg/kg PO, Day 21), −23%; in data set [3] (Example 3 15 mg/kg PO, Day 24) it was −52.4%; in data set [3] (Example 3 15 mg/kg PO, Day 28), −74.1* %; in data set [3] (Example 3 15 mg/kg PO, Day 31) it was −58.8* %.

Take `CCN(CC)CCNC(=O)c1c(C)[nH]c(/C=C2\C(=O)Nc3ccc(F)cc32)c1C` [Sunitinib]: the “% Tumor Growth Inhibition” value in data set [3] (Sunitinib 10 mg/kg PO, Day 17) is reported as −1.6%; in data set [3] (Sunitinib 10 mg/kg PO, Day 21), 2.9%; in data set [3] (Sunitinib 10 mg/kg PO, Day 24) it was −16.3%; in data set [3] (Sunitinib 10 mg/kg PO, Day 28) it was −21.2%; in data set [3] (Sunitinib 20 mg/kg PO, Day 17), −55.9%; in data set [3] (Sunitinib 20 mg/kg PO, Day 21), 31.5%. Moreover, the “% Tumor Growth Inhibition” value in data set [3] (Sunitinib 20 mg/kg PO, Day 24) is listed as 18%; in data set [3] (Sunitinib 20 mg/kg PO, Day 28), 34.5%; in data set [3] (Sunitinib 20 mg/kg PO, Day 31) it was 35.4* %.
